The source of these data is patent EP4796540A2, “N-SULFONAMIDE NITROGEN-CONTAINING FUSED HETEROCYCLIC COMPOUND, AND APPLICATION THEREOF” (priority 2023, dated 2025).

The structures appear in SMILES notation. Values joined by “and” are separate entries in the source; they are usually repeats but may differ in a detail not shown here. Identical values can stand only once.

Experiment [1] concerns p53 Y220C mutant. In words: HTRF assay: compounds promoting the binding of p53 Y220C mutant with DNA. Conditions: His-tagged p53 Y220C (94-312), biotin-labeled DNA. In kind it is biochemical. The method, then: Homogeneous time-resolved fluorescence (HTRF) assay was used to measure the reactivation effect of compounds on the p53 Y220C mutant. The recombinant His-tagged p53 Y220C (94-312) used for HTRF assays was expressed in E. coli and purified to the purity of 90% through Ni-NTA column. The biotin-labeled DNA used for HTRF assays was synthesized by Pharmaron Inc, with the specific sequence of 5'-[…]-3' .
The binding of recombinant His-tagged p53 Y220C protein and biotin-labeled DNA was measured using fluorescence resonance energy transfer (FRET). For FRET assays, binding between p53 mutants and DNA sequences was measured by detecting the fluorescence of the interaction between an anti-His antibody (Cisbio, 61HI2KLA) conjugated to Eu and d2-conjugated streptavidin (Cisbio, 610SADLF) bound to a biotin-labeled DNA molecule. Compounds were prepared into 2 mM stock solutions and serially diluted into 10 concentrations at a 1:3 ratio in DMSO. Each 200-fold working concentration compound was sequentially diluted to 4-fold working concentration. 4 µL of compound solution was transferred line by line to a 384-well assay plate using Echo, containing 2 replicates per column. 4 µL of p53 solution was added to the assay plate. 4 µL of biotin DNA solution was added to the assay plate, and then 4 µL of assay solution (His-Eu antibody and streptavidin-d2) was added to each well of the assay plate. The assay plate was incubated overnight and protected from light. Fluorescence was read on BMG (BMG LRBTECH).
The ratio of each well was calculated (ratio_665 nm/615 nm-ratio_background). The activity % was calculated as follows: C = (Ave_Ac−Ave_Ba)/(Ave_Dc_Ave_Bd) [formula] R data = (A−Ave_Ba−C*D)/(D−Ave_Bd)*(Ave_Dc−Ave_Bd) [formula] Activity % = R data/Ave_VC*100. [formula] • A: fluorescence intensity of the sample at 665 nm; • D: fluorescence intensity of the sample at 615 nm; • Ba: fluorescence intensity of the plate background at 665 nm; • Bd: fluorescence intensity of the plate background at 615 nm; • Dc: fluorescence intensity of HIS-Eu background at 615 nm; • Ac: fluorescence intensity of streptavidin-d2 background at 665 nm; • VC: DMSO treatment group.
SC150 was calculated using Graphpad 8.0 to fit the logarithm of activity% and compound concentration to a nonlinear regression (dose response-variable slope). Table 1: Activity of compounds promoting the binding of p53 Y220C mutant with DNA
(TR-FRET usually uses a lanthanide donor and a delayed reading to cut background.)

Experiment [2] relates to human gastric cancer NUGC-3 xenograft. In words: In vivo efficacy study in human gastric cancer NUGC-3 xenograft rat model. Conditions: QD × 28 days, p.o., rats. Also noted: species or system B-Rag2/IL2rg KO SD rats. The method, then: 1. Experimental purpose: To test the in vivo anti-tumor activity of compounds in the subcutaneous human gastric cancer NUGC-3 xenograft model in female B-Rag2/IL2rg KO SD rats. 2. Experimental materials: Animals: 7 to 9 weeks old female B-Rag2/IL2rg KO SD rats; Reagents:
Vehicle: 5% DMSO/10% Solutol HS 15/85% pH 4.65 ± 0.10 acetate buffer;
Cell culture: NUGC-3 cells were cultured in RPMI-1640 medium containing 10% FBS.
Molding and grouping: NUGC-3 cells in the exponential growth phase (1 × 10^7) were harvested, resuspended in 0.2 mL of PBS and Matrigel (1:1), and then inoculated subcutaneously into the right flank of B-Rag2/IL2rg KO SD rats to establish a subcutaneous xenograft model. Rats were observed daily for healthy status and tumor growth after cell inoculation. On the 10th day after inoculation, 24 animals were selected, grouped, and the tumor volume of the animals in the group was approximately 199.0 mm^3. The study was divided into 4 groups, with 6 rats in each group, and the administration was performed on the same day (see Table 12).
4. Experimental design: Table 12 is the grouping and administration information for the efficacy study. Rats in the G1 group were orally administered vehicle control (5% DMSO/10% Solutol HS 15/85% pH 4.65 ± 0.10 acetate buffer) once a day for a total of 28 days. Rats in the G2 group were orally administered Cpd-2 once a day at a dose of 6.25 mg/kg for a total of 28 days. Rats in the G3 group were orally administered Cpd-2 once a day at a dose of 12.5 mg/kg for a total of 28 days. Rats in the G4 group were orally administered Cpd-2 once a day at a dose of 25 mg/kg for a total of 28 days. Table 12. In vivo efficacy study design of NUGC-3 xenograft rat model
Experimental observation: The health status and mortality of the animals were monitored daily. Routine checks included the effect of tumor growth and drug treatment on animals' normal behavior such as mobility, food and water consumption, body weight gain/loss, eye/hair matting and any other abnormal effect. The number of deaths and side effects of the animals in the group were recorded based on the number of the animals in each group. Clinical symptoms observed during the trial were recorded in the raw data. Tumor volume calculation formula: Tumor volume (mm^3) = 0.5 × (tumor long diameter × tumor short diameter^2). During the research process, the entire administration process as well as tumor and body weight measurements were conducted in a Laminar Flow Cabinet.
Data processing: Percentage of tumor growth inhibition TGITV (%): TGITV % = (1 - ΔT/ΔC) × 100%; Wherein ΔC is the tumor volume Ct - C0 for the control group, C0 is the average tumor volume of the control group at the time of grouping, and Ct is the average tumor volume of the control group after treatment; ΔT is the tumor volume Tt - T0 for the treatment group, T0 is the average tumor volume of the treatment group at the time of grouping, and Tt is the average tumor volume of the treatment group after treatment.
Statistical analysis: Tumor volume and animal body weight results are expressed in Mean ± SEM. Tumor volumes between different groups were statistically compared and analyzed. All statistical analyses were completed in https://d2k.bio/Efficacy/Invivo. The wilcox.test nominal method was used to compare whether there was a significant difference in tumor volume or tumor weight between groups, where p ≥ 0.05 was considered as having no significant difference, p < 0.05 was considered as having a significant difference, and p < 0.01 was considered as having an extremely significant difference.

In turn, `[2H]C([2H])([2H])Oc1nc(C(=O)NS(C)(=O)=O)ccc1NCC#Cc1cc2c(N[C@@H]3CCN(C)C[C@@H]3F)cccn2c1CC(F)(F)F` [Cpd-2, 5-((3-(8-(((3S,4R)-3-Fluoro-1-methylpiperidin-4-yl)amino)-3-(2,2,2-trifluoroethyl)indolizin-2-yl)prop-2-yn-1-yl)amino)-6-(methoxy-d3)-N-(methylsulfonyl)picolinamide] gave an SC150 in experiment [1] of 0.58 nM. Moreover, the “TGITV (%) (at 28 days)” value in experiment [2] (6.25 mg/kg) turned out to be 92.9%; in experiment [2] (12.5 mg/kg), 102.9%; in experiment [2] (25 mg/kg), 104.7%. In addition, the “Tumor volume (mm^3) (Mean ± SEM) (at 28 days)” value in experiment [2] (6.25 mg/kg) is 395.0 mm^3 and 395.0 ± 63.1 mm^3; in experiment [2] (12.5 mg/kg) it was 119.2 mm^3 and 119.2 ± 10.2 mm^3; in experiment [2] (25 mg/kg), 70.1 mm^3 and 70.1 ± 14.9 mm^3.
